Here are results for 23 compounds from US10160747B2, “Compounds and methods for kinase modulation, and indications therefor” (Plexxikon Inc., priority 2016, dated 2018).

The test system of assay [1] is MOLM-14 F691L (endogenous FLT3 ITD and transfected FLT3 F691L). Description: MOLM-14 F691L cell proliferation assay (CellTiter-Glo). In kind it is cell-based. Particulars: Homo sapiens, MOLM-14, 72 h; 3 d growth, GMean. The method in brief: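 Three-day proliferation at 37 °C/5% CO2 of FLT3-ITD MOLM-14 lines with D835Y or F691L mutation, seeded 1×10^4 per well. Compounds at eight points, top 1 μM final, 0.2% DMSO. ATP luminescence (CellTiter-Glo) gives IC50.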
In general terms: ATP-based viability assays read luminescence as a measure of living cells.

The next assay addresses T1, BA/F3-FLT3-ITD + D835Y (Homo sapiens, UniProt P36888, D835Y, cells depend on it, form not given).
T1 sequence (P36888 with tags, fused parts or gaps INS600HVDFREYEYD/D835Y): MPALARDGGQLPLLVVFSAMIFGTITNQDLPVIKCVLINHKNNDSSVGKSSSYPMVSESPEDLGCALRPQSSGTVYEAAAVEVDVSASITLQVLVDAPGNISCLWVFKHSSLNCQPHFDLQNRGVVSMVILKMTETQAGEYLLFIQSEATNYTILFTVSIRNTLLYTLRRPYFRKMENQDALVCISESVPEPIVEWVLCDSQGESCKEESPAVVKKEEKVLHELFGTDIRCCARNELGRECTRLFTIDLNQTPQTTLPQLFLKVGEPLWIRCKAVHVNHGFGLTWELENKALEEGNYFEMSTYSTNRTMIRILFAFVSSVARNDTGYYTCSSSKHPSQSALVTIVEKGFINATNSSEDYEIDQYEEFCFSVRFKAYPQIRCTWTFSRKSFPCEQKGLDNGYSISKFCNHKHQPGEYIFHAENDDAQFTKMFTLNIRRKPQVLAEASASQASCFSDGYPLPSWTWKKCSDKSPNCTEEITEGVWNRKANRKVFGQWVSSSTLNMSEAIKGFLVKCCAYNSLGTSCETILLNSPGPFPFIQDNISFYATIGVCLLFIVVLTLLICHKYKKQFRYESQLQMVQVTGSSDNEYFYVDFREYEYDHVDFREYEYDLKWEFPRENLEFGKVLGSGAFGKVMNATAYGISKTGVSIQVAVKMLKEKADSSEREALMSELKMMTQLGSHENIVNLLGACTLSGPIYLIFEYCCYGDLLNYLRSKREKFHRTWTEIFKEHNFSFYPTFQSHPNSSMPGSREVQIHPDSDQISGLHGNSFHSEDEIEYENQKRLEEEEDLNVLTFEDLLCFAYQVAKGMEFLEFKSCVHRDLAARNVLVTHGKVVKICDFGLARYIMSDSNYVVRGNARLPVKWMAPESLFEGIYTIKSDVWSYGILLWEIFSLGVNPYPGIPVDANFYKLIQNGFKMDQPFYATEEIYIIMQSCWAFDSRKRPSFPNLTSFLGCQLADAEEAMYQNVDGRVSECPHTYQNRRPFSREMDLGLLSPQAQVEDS
Description: Engineered BA/F3 cell growth assay, FLT3 ITD/D835Y. The format is cell-based, murine. The settings on record: 3 d growth. The method in brief:
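IC50 derived from CellTiter-Glo ATP luminescence after 3 days at 37 °C, 5% CO2, over eight 1:3 dilutions from 1 μM (0.2% DMSO final). Cells: IL-3-independent murine Ba/F3 expressing full-length FLT3 ITD/D835Y, 1×10^4 per well.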

In the case of `O=C(Cc1ccc(-c2cnc3[nH]c(-c4ccccc4)cc3c2)c(F)c1)Nc1cccc(C(F)(F)F)c1` [Compound P-0003, 2-[3-fluoro-4-(2-phenyl-1H-pyrrolo[2,3-b]pyridin-5-yl)phenyl]-N-[3-(trifluoromethyl)phenyl]acetamide], the IC50 in assay [1] is 0.0001 to 10 µM. Moreover, the concentration for 50% growth inhibition (GI50) on BA/F3-FLT3-ITD + D835Y was in the range of 0.0001 to 10 µM.

In turn, `Cn1cc(Nc2ncc(-c3ccc(CC(=O)NCc4ncccc4C(F)(F)F)cc3)cn2)cn1` [Compound P-0159, 2-[4-[2-[(1-methylpyrazol-4-yl)amino]pyrimidin-5-yl]phenyl]-N-[[3-(trifluoromethyl)-2-pyridyl]methyl]acetamide] registered an IC50 in assay [1] of 0.0001 to 10 µM. The GI50 at BA/F3-FLT3-ITD + D835Y was 0.0001 to 10 µM.

As for `Cn1cc(Nc2ncc(-c3ccc(CC(=O)Nc4cncc(C(F)(F)F)c4)cc3)cn2)cn1` [Compound P-0136, 2-[4-[2-[(1-methylpyrazol-4-yl)amino]pyrimidin-5-yl]phenyl]-N-[5-(trifluoromethyl)-3-pyridyl]acetamide], in assay [1], the IC50 lay within 0.0001 to 10 µM. For the same compound, the concentration for 50% growth inhibition (GI50) on BA/F3-FLT3-ITD + D835Y was 0.0001 to 10 µM.

In assay [1], `O=C(Cc1ccc(-c2cnc3[nH]c(-c4ccnc(N5CCOCC5)c4)cc3c2)cn1)Nc1ccnc(C(F)(F)F)c1` [Compound P-0181, 2-[5-[2-(2-morpholino-4-pyridyl)-1H-pyrrolo[2,3-b]pyridin-5-yl]-2-pyridyl]-N-[2-(trifluoromethyl)-4-pyridyl]acetamide] displayed an IC50 of 0.0001 to 10 µM. Moreover, the GI50 on BA/F3-FLT3-ITD + D835Y was 0.0001 to 10 µM.

As for `Cn1cc(Nc2ncc(-c3ccc(CC(=O)Nc4ccc(C(F)(F)F)c(F)c4)cc3)cn2)cn1` [Compound P-0142, N-[3-fluoro-4-(trifluoromethyl)phenyl]-2-[4-[2-[(1-methylpyrazol-4-yl)amino]pyrimidin-5-yl]phenyl]acetamide], the IC50 in assay [1] is 0.0001 to 10 µM. Further, at BA/F3-FLT3-ITD + D835Y, the GI50 was in the range of 0.0001 to 10 µM.

As for `Cn1cnc(Nc2ncc(-c3ccc(CC(=O)Nc4cnc(Cl)c(C(F)(F)F)c4)c(F)c3)cn2)c1` [Compound P-0100, N-[6-chloro-5-(trifluoromethyl)-3-pyridyl]-2-[2-fluoro-4-[2-[(1-methylimidazol-4-yl)amino]pyrimidin-5-yl]phenyl]acetamide], the IC50 in assay [1] lay within 0.0001 to 10 µM. For the same compound, the GI50 on BA/F3-FLT3-ITD + D835Y is 0.0001 to 10 µM.

`Cn1cc(Nc2ncc(-c3ccc(CC(=O)Nc4ccnc(C(F)(F)F)c4)cc3)cn2)cn1` [Compound P-0134, 2-[4-[2-[(1-methylpyrazol-4-yl)amino]pyrimidin-5-yl]phenyl]-N-[2-(trifluoromethyl)-4-pyridyl]acetamide] yielded an IC50 in assay [1] of 0.0001 to 10 µM. In addition, the GI50 on BA/F3-FLT3-ITD + D835Y was 0.0001 to 10 µM.

As for `Cn1cc(Nc2ncc(-c3ccc(CC(=O)Nc4ccc(C(F)(F)F)nc4)cc3)cn2)cn1` [Compound P-0095, 2-[4-[2-[(1-methylpyrazol-4-yl)amino]pyrimidin-5-yl]phenyl]-N-[6-(trifluoromethyl)-3-pyridyl]acetamide], in assay [1], the IC50 fell in the range of 0.0001 to 10 µM. The GI50 at BA/F3-FLT3-ITD + D835Y was in the range of 0.0001 to 10 µM.

In turn, `Cn1cnc(Nc2ncc(-c3ccc(CC(=O)Nc4cncc(C(C)(F)F)c4)c(F)c3)cn2)c1` [Compound P-0103, N-[5-(1,1-difluoroethyl)-3-pyridyl]-2-[2-fluoro-4-[2-[(1-methylimidazol-4-yl)amino]pyrimidin-5-yl]phenyl]acetamide] displayed an IC50 in assay [1] of 0.0001 to 10 µM. Besides, on BA/F3-FLT3-ITD + D835Y, the GI50 is 0.0001 to 10 µM.

On to `Cn1cc(Nc2ncc(-c3ccc(CC(=O)Nc4ccnc(C5CC5)c4)cc3)cn2)cn1` [Compound P-0097, N-(2-cyclopropyl-4-pyridyl)-2-[4-[2-[(1-methylpyrazol-4-yl)amino]pyrimidin-5-yl]phenyl]acetamide], for which, in assay [1], the IC50 lay within 0.0001 to 10 µM. For the same compound, the GI50 on BA/F3-FLT3-ITD + D835Y was in the range of 0.0001 to 10 µM.

In turn, `Cn1cc(Nc2ncc(-c3ccc(CC(=O)Nc4cccc(S(C)(=O)=O)c4)cc3)cn2)cn1` [Compound P-0155, 2-[4-[2-[(1-methylpyrazol-4-yl)amino]pyrimidin-5-yl]phenyl]-N-(3-methylsulfonylphenyl)acetamide] displayed an IC50 in assay [1] of 0.0001 to 10 µM. Further, on BA/F3-FLT3-ITD + D835Y, the GI50 lay in the range of 0.0001 to 10 µM.

In the case of `Cn1cc(Nc2ncc(-c3ccc(CC(=O)NCc4cccnc4)cc3)cn2)cn1` [Compound P-0132, 2-[4-[2-[(1-methylpyrazol-4-yl)amino]pyrimidin-5-yl]phenyl]-N-(3-pyridylmethyl)acetamide], the IC50 in assay [1] lay in the range of 0.0001 to 10 µM. The GI50 at BA/F3-FLT3-ITD + D835Y is 0.0001 to 10 µM.

`Cn1cnc(Nc2ncc(-c3ccc(CC(=O)Nc4cc(C(C)(F)F)ccn4)c(F)c3)cn2)c1` [Compound P-0102, N-[4-(1,1-difluoroethyl)-2-pyridyl]-2-[2-fluoro-4-[2-[(1-methylimidazol-4-yl)amino]pyrimidin-5-yl]phenyl]acetamide] gave an IC50 in assay [1] of 0.0001 to 10 µM. The GI50 at BA/F3-FLT3-ITD + D835Y was in the range of 0.0001 to 10 µM.

As for `Cn1cnc(Nc2ncc(-c3ccc(CC(=O)Nc4cncc(C(F)(F)F)c4)cc3)cn2)c1` [Compound P-0167], in assay [1], the IC50 lay within 0.0001 to 10 µM. Besides, the GI50 at BA/F3-FLT3-ITD + D835Y fell in the range of 0.0001 to 10 µM.

The compound `O=C(Cc1ccc(-c2cnc3[nH]c(-c4ccccc4)cc3c2)cc1F)Nc1ccnc(C(F)(F)F)c1` [Compound P-0004, 2-[2-fluoro-4-(2-phenyl-1H-pyrrolo[2,3-b]pyridin-5-yl)phenyl]-N-[2-(trifluoromethyl)-4-pyridyl]acetamide] returned an IC50 in assay [1] of 0.0001 to 10 µM. Also, at BA/F3-FLT3-ITD + D835Y, the GI50 was in the range of 0.0001 to 10 µM.

`Cc1ncc(NC(=O)Cc2ccc(-c3cnc(Nc4cn(C)cn4)nc3)cc2F)cc1C(F)(F)F` [Compound P-0099, 2-[2-fluoro-4-[2-[(1-methylimidazol-4-yl)amino]pyrimidin-5-yl]phenyl]-N-[6-methyl-5-(trifluoromethyl)-3-pyridyl]acetamide] gave an IC50 in assay [1] of 0.0001 to 10 µM. Besides, the GI50 on BA/F3-FLT3-ITD + D835Y was in the range of 0.0001 to 10 µM.

`O=C(Cc1ccc(-c2cnc3[nH]c(-c4ccc(N5CCOCC5)nc4)cc3c2)c(F)c1)Nc1cncc(C(F)(F)F)c1` [Compound P-0198, 2-[3-fluoro-4-[2-(6-morpholino-3-pyridyl)-1H-pyrrolo[2,3-b]pyridin-5-yl]phenyl]-N-[5-(trifluoromethyl)-3-pyridyl]acetamide] came in with an IC50 in assay [1] of 0.0001 to 10 µM. Besides, the GI50 at BA/F3-FLT3-ITD + D835Y is 0.0001 to 10 µM.

For `COc1ncc(NC(=O)Cc2ccc(-c3cnc(Nc4cnn(C)c4)nc3)cc2)cc1C(F)(F)F` [Compound P-0138, N-[6-methoxy-5-(trifluoromethyl)-3-pyridyl]-2-[4-[2-[(1-methylpyrazol-4-yl)amino]pyrimidin-5-yl]phenyl]acetamide], the IC50 in assay [1] fell in the range of 0.0001 to 10 µM. Also, the GI50 on BA/F3-FLT3-ITD + D835Y lay within 0.0001 to 10 µM.

As for `Cn1cc(Nc2ncc(-c3ccc(CC(=O)Nc4cccc(C(C)(C)C#N)c4)cc3)cn2)cn1` [Compound P-0158, N-[3-(1-cyano-1-methyl-ethyl)phenyl]-2-[4-[2-[(1-methylpyrazol-4-yl)amino]pyrimidin-5-yl]phenyl]acetamide], the IC50 in assay [1] lay in the range of 0.0001 to 10 µM. Further, at BA/F3-FLT3-ITD + D835Y, the GI50 was 0.0001 to 10 µM.

`Cn1cc(Nc2ncc(-c3ccc(CC(=O)Nc4ccc(C(C)(C)C)nc4)cc3)cn2)cn1` [Compound P-0143, N-(6-tert-butyl-3-pyridyl)-2-[4-[2-[(1-methylpyrazol-4-yl)amino]pyrimidin-5-yl]phenyl]acetamide]: in assay [1], the IC50 fell in the range of 0.0001 to 10 µM. The GI50 on BA/F3-FLT3-ITD + D835Y fell in the range of 0.0001 to 10 µM.

In the case of `O=C(Cc1ccc(-c2cnc3[nH]c(-c4ccc(N5CCOCC5)nc4)cc3c2)c(F)c1)Nc1cc(C(F)(F)F)ccn1` [Compound P-0192, 2-[3-fluoro-4-[2-(6-morpholino-3-pyridyl)-1H-pyrrolo[2,3-b]pyridin-5-yl]phenyl]-N-[4-(trifluoromethyl)-2-pyridyl]acetamide], in assay [1], the IC50 fell in the range of 0.0001 to 10 µM. For the same compound, the GI50 on BA/F3-FLT3-ITD + D835Y fell in the range of 0.0001 to 10 µM.

Compound `CCn1cc(Nc2ncc(-c3ccc(CC(=O)Nc4cnc(Cl)c(C(F)(F)F)c4)cc3)cn2)cn1` [Compound P-0165, N-[6-chloro-5-(trifluoromethyl)-3-pyridyl]-2-[4-[2-[(1-ethylpyrazol-4-yl)amino]pyrimidin-5-yl]phenyl]acetamide] returned an IC50 in assay [1] of 0.0001 to 10 µM. At BA/F3-FLT3-ITD + D835Y, the GI50 lay within 0.0001 to 10 µM.

Consider `Cn1cc(Nc2ncc(-c3ccc(CC(=O)Nc4cnc(Cl)c(C(F)(F)F)c4)c(F)c3)cn2)cn1` [Compound P-0092, N-[6-chloro-5-(trifluoromethyl)-3-pyridyl]-2-[2-fluoro-4-[2-[(1-methylpyrazol-4-yl)amino]pyrimidin-5-yl]phenyl]acetamide], for which the IC50 in assay [1] lay in the range of 0.0001 to 10 µM. In addition, on BA/F3-FLT3-ITD + D835Y, the GI50 was in the range of 0.0001 to 10 µM.

The term IC50 denotes the point on the concentration scale where inhibition reaches its midpoint. A low value points to greater potency in that assay. A word on the GI50: it is the concentration at which growth is held to half of that of the control.
